# Experimental data: patent publication US20110166191A1, “3-(2-amino-ethyl)-5-(3-cyclohexyl-propylidene)-thiazolidine-2,4-dione and its derivatives as multiple signaling pathway inhibitors and for the treatment of cancer” (priority 2010, published 2011)
# Assays:
# [1] = target: T1, PKA (Homo sapiens, UniProt P17612); experiment: In vitro kinase screening; type: biochemical; settings: 10 μM concentration
# T1 construct: Caliper Life Sciences
# Protocol: (§1) Formula II [3-(2-aminoethyl)-5-(3-cyclohexylpropylidene)thiazolidine-2,4-dione] was screened against a panel of kinases at 10 μM concentration by Caliper Life Sciences according to their established protocol.
# [2] = target: T2, CHK2 (Homo sapiens, UniProt O96017); experiment: In vitro kinase screening; type: biochemical; settings: CHK2, 10 μM concentration
# T2 construct: Caliper Life Sciences (screening service)
# Protocol: as §1
# [3] = target: T3, c-Raf (Homo sapiens, UniProt P04049); experiment: In vitro kinase screening; type: biochemical; settings: 10 μM concentration
# T3 construct: Caliper Life Sciences (screening service)
# Protocol: as §1
# [4] = target: T4, DYRK1a (Homo sapiens, UniProt Q13627); experiment: In vitro kinase screening; type: biochemical; settings: 10 μM concentration
# T4 construct: Caliper Life Sciences (screening service)
# Protocol: as §1
# [5] = target: T5, RSK1 (Homo sapiens, UniProt Q15418); experiment: In vitro kinase screening; type: biochemical; settings: RSK1, 10 μM concentration
# T5 construct: Caliper Life Sciences
# Protocol: as §1
# [6] = target: T6, GSK3b (Homo sapiens, UniProt P49841); experiment: In vitro kinase screening; type: biochemical; settings: 10 μM concentration
# T6 construct: Caliper Life Sciences (screening service)
# Protocol: as §1
# [7] = target: T7, PI3Ka (Homo sapiens, UniProt P42336); experiment: In vitro kinase screening; type: biochemical; settings: 10 μM concentration
# T7 construct: Caliper Life Sciences
# Protocol: as §1
# [8] = target: T8, PKCz (Homo sapiens, UniProt Q05513); experiment: In vitro kinase screening; type: biochemical; settings: 10 μM concentration
# T8 construct: Caliper Life Sciences
# Protocol: as §1
# [9] = target: T9, AurA (Homo sapiens, UniProt O14965); experiment: In vitro kinase screening; type: biochemical; settings: 10 μM concentration
# T9 construct: Caliper Life Sciences (screening service)
# Protocol: as §1
# [10] = target: T10, MEK2 (Homo sapiens, UniProt P36507); experiment: In vitro kinase screening; type: biochemical; settings: MEK2, 10 μM concentration
# T10 construct: Caliper Life Sciences
# Protocol: as §1
# [11] = target: T11, PRAK (Homo sapiens, UniProt Q8IW41); experiment: In vitro kinase screening; type: biochemical; settings: 10 μM concentration
# T11 construct: Caliper Life Sciences
# Protocol: as §1
# [12] = tested on: OVCAR-8; experiment: NCI 60 cell line panel screening; type: cell-based; settings: Homo sapiens, Ovarian Cancer, read-out: Growth Inhibition (GI50)
# Source text: (§2) Compound 3-(2-aminoethyl)-5-(3-cyclohexylpropylidene)thiazolidine-2,4-dione was screened at five concentrations in National Cancer Institute (NCI) 60-cell line panel according to NCI's protocol for growth inhibition.
# [13] = tested on: U251; experiment: NCI 60 cell line panel screening; type: cell-based; settings: Homo sapiens, U-251, CNS Cancer, read-out: Growth Inhibition (GI50)
# Source text: as §2
# [14] = tested on: HCT-116; experiment: NCI 60 cell line panel screening; type: cell-based; settings: Homo sapiens, Colon Cancer, read-out: Growth Inhibition (GI50)
# Source text: as §2
# [15] = tested on: CCRF-CEM; experiment: NCI 60 cell line panel screening; type: cell-based; settings: Homo sapiens, Leukemia, read-out: Growth Inhibition (GI50)
# Source text: as §2
# [16] = tested on: MDA-MB-468; experiment: NCI 60 cell line panel screening; type: cell-based; settings: Homo sapiens, Breast Cancer, read-out: Growth Inhibition (GI50)
# Source text: as §2
# [17] = tested on: UACC-257; experiment: NCI 60 cell line panel screening; type: cell-based; settings: Homo sapiens, Melanoma, read-out: Growth Inhibition (GI50)
# Source text: as §2
# [18] = tested on: HCC-2998; experiment: NCI 60 cell line panel screening; type: cell-based; settings: Homo sapiens, Colon Cancer, read-out: Growth Inhibition (GI50)
# Source text: as §2
# [19] = tested on: CAKI-1; experiment: NCI 60 cell line panel screening; type: cell-based; settings: Homo sapiens, Renal Cancer, read-out: Growth Inhibition (GI50)
# Source text: as §2
# [20] = tested on: RPMI-8226; experiment: NCI 60 cell line panel screening; type: cell-based; settings: Homo sapiens, Leukemia, read-out: Growth Inhibition (GI50)
# Source text: as §2
# [21] = tested on: NCI-H226; experiment: NCI 60 cell line panel screening; type: cell-based; settings: Homo sapiens, Non-Small Cell Lung Cancer, read-out: Growth Inhibition (GI50)
# Source text: as §2
# [22] = tested on: NCI/ADR-RES; experiment: NCI 60 cell line panel screening; type: cell-based; settings: Homo sapiens, Ovarian Cancer, read-out: Growth Inhibition (GI50)
# Source text: as §2
# [23] = tested on: SNB-19; experiment: NCI 60 cell line panel screening; type: cell-based; settings: Homo sapiens, CNS Cancer, read-out: Growth Inhibition (GI50)
# Source text: as §2
# [24] = tested on: KM12; experiment: NCI 60 cell line panel screening; type: cell-based; settings: Homo sapiens, Colon Cancer, read-out: Growth Inhibition (GI50)
# Source text: as §2
# [25] = tested on: phosphorylation of Akt; experiment: Western blot analysis of p-Akt in U937 cells; type: cell-based; settings: PMA/TPA 200 nM stimulation
# Protocol: FIG. 1. U937 cells were treated with Formula II prepared as described in Example 4 [i.e. 3-(2-aminoethyl)-5-(3-cyclohexylpropylidene)thiazolidine-2,4-dione] for 1 h, then stimulated with PMA (200 nM) for 30 min. Lysates were analyzed for p-Akt, p-MEK, p-ERK and α-tubulin by western blot analysis.
# Cells (5×10^5 per ml) were treated with various concentrations of test compound at 37° C. (5% CO2) for 3 hrs, then stimulated with TPA at a final concentration of 200 nM for 20 min. Samples from whole-cell pellets were prepared and 30 μg protein for each condition was subjected to SDS-PAGE, transferred onto a PVDF membrane, and blocked with 5% fat-free milk for 30 min. The membrane is probed with primary antibodies overnight at 4° C. followed by incubation with horseradish peroxidase-labeled anti-mouse IgG (1:5000, BD Biosciecne). The immunoreactive bands are detected by chemiluminescence methods (Pierce) and visualized on Kodak Omat film. The following primary antibodies were used: phospho-p44/42 MAPK (ERK1/2, Thr202/Tyr204), p44/42 MAPK, phospho-p90RSK (Thr359/Ser363), RSK1/RSK2/RSK3 (Cell Signaling). Blots were reprobed with antibodies against α-tubulin to ensure equal loading and transfer of proteins.
# [26] = tested on: B16F10 melanoma cells; experiment: Reduction of murine B16F10 melanoma lung nodules in mice; type: in vivo, B6C3F1 mice; settings: 20 mg/kg daily gavage
# Protocol: FIG. 5. […] Female B6C3F1 mice (10-11/group) were injected with 2×10^5 B16F10 melanoma cells (i.v.), and treatment with 20 mg/kg dose daily (gavage) was started one day before the tumor cell injection and stopped at day 15 after tumor injection. Mice were sacrificed at day 18 and lungs were removed for counting and observation.
# Female B6C3F1 mice (10-11/group) were injected with 2×10^5 B16F10 melanoma cells (i.v.), and treatment with the compound produced as described in Example 4i.e. 3-(2-aminoethyl)-5-(3-cyclohexylpropylidene)thiazolidine-2,4-dione, 20 mg/kg dosage daily (gavage) was started one day before the tumor cell injection and stopped at day 15 after tumor injection. Mice were sacrificed at day 18 and lungs were removed for counting and observation.
# T9 sequence (O14965 whole entry): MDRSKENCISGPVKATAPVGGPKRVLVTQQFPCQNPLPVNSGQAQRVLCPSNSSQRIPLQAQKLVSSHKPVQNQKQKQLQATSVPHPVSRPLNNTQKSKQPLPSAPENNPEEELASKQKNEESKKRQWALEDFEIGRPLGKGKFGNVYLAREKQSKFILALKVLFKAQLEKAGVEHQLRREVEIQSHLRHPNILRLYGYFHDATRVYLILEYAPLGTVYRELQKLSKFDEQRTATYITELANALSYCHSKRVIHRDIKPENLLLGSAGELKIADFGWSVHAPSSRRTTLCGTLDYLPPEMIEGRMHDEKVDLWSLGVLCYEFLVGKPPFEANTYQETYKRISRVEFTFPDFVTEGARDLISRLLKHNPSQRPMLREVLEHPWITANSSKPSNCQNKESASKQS
# T6 sequence (P49841 whole entry): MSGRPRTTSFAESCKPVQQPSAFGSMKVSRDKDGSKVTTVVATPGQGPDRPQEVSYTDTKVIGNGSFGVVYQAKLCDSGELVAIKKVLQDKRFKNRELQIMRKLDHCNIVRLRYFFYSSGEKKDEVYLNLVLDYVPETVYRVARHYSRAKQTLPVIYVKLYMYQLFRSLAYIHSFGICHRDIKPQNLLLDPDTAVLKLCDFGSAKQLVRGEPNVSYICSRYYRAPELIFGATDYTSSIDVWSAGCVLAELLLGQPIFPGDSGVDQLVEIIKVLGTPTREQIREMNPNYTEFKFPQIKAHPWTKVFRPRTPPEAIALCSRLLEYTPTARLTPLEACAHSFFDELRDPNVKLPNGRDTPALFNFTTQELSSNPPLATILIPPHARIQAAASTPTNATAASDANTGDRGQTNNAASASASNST
# T11 sequence (Q8IW41 whole entry, species assumed): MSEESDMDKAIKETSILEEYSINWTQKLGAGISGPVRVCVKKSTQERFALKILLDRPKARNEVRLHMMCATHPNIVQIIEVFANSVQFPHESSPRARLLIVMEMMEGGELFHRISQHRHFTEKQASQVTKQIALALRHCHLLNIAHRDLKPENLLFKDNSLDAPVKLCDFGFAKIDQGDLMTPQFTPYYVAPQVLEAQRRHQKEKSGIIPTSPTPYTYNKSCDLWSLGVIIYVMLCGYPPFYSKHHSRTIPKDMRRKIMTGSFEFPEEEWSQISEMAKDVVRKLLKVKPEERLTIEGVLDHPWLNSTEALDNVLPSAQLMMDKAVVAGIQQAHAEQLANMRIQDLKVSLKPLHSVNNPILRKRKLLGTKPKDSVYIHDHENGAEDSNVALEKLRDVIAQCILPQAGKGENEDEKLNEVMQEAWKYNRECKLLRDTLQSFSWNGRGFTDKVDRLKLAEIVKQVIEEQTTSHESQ
# T5 sequence (Q15418 whole entry, species assumed): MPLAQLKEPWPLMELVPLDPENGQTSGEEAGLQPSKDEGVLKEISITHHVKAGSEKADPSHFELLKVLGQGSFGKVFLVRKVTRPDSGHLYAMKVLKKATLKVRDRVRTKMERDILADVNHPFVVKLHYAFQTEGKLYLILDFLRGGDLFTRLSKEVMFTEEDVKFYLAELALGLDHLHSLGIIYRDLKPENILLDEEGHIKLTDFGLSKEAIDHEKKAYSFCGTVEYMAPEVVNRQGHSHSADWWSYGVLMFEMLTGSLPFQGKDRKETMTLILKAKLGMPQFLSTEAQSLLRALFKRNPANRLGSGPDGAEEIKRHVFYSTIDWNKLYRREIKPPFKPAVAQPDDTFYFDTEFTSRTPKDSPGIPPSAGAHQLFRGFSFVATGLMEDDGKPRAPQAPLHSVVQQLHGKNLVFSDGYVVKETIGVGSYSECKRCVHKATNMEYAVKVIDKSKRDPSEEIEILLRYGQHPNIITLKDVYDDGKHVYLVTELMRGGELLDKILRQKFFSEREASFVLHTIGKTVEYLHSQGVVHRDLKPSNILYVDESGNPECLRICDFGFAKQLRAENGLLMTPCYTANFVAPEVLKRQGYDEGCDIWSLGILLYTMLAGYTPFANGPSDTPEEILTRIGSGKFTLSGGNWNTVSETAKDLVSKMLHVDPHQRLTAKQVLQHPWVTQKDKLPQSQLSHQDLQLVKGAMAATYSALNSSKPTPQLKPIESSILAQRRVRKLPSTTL
# T8 sequence (Q05513 whole entry): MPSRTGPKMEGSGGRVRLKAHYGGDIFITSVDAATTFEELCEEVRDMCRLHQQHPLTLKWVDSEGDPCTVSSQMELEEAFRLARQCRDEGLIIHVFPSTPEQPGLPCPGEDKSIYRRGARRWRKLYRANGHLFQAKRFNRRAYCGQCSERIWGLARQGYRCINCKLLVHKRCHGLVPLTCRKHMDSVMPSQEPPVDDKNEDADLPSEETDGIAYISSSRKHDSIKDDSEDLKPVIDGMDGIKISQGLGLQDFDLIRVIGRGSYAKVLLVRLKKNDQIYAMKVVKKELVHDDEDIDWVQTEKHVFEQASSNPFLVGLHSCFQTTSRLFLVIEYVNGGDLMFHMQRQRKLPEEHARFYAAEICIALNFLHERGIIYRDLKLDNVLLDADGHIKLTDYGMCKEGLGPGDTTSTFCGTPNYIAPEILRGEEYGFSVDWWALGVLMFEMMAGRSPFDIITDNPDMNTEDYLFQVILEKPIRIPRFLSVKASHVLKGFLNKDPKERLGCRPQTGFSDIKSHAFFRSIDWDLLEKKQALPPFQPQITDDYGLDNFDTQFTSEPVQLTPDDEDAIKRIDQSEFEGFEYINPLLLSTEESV
# T7 sequence (P42336 whole entry): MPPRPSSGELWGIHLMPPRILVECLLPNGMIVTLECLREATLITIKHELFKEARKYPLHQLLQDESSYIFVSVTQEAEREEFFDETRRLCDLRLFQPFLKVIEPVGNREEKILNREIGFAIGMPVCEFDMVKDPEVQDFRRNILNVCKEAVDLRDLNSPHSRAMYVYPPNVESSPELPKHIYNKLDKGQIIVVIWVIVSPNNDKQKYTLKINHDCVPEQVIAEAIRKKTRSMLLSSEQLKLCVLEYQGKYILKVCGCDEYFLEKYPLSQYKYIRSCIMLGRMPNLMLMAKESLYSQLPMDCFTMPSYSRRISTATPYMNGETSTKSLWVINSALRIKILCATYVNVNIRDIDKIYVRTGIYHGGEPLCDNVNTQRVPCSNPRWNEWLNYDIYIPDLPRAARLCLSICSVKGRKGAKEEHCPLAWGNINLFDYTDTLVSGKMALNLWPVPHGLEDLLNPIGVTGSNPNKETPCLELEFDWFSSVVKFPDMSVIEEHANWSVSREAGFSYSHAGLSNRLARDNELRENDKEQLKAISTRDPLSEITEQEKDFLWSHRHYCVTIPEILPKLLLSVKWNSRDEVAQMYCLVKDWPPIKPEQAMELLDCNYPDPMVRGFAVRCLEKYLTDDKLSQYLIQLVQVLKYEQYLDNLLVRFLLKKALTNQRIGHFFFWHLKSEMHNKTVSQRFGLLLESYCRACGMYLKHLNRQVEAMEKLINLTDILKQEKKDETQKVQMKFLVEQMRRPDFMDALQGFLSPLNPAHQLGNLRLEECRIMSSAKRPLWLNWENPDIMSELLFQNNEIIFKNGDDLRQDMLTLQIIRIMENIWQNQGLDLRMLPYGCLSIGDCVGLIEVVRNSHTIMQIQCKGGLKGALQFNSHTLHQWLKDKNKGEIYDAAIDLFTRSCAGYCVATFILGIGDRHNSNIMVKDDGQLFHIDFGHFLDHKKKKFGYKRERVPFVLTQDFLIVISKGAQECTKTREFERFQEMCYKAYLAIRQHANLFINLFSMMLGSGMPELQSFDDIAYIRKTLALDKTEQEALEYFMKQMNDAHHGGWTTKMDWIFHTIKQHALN
# T7 sequence (P27986 whole entry partner): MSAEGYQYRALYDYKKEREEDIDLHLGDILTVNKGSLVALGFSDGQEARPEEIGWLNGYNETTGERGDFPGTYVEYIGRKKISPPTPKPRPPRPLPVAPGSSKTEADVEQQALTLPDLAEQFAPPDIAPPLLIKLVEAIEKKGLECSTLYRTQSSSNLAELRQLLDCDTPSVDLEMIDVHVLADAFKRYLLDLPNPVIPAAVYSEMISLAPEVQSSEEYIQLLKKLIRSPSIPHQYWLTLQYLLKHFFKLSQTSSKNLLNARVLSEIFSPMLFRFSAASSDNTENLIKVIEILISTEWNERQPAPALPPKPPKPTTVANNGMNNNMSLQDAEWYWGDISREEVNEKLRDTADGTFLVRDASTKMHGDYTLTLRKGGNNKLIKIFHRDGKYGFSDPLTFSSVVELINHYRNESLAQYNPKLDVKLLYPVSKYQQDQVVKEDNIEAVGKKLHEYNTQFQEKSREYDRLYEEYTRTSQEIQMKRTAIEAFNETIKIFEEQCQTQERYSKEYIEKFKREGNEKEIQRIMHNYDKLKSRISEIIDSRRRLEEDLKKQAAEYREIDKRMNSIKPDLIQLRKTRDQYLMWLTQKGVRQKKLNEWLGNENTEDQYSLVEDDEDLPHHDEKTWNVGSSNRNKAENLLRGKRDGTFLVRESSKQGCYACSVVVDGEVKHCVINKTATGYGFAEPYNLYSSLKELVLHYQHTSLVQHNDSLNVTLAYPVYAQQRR
# T10 sequence (P36507 whole entry, species assumed): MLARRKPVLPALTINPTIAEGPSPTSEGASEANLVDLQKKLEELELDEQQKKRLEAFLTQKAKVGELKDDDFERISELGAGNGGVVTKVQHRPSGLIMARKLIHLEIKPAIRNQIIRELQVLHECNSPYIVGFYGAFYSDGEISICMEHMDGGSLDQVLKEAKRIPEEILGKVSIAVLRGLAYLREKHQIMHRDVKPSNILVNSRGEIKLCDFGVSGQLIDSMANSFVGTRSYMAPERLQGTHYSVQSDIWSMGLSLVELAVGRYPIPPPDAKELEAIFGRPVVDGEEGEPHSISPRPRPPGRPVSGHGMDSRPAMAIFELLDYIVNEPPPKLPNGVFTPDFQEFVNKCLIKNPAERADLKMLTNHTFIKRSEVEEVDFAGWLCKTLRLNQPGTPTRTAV
compound,measurement,setting,value
"NCCN1C(=O)S/C(=C\CCC2CCCCC2)C1=O [Example 4, 3-(2-aminoethyl)-5-(3-cyclohexylpropylidene)thiazolidine-2,4-dione]",inhibition at 10 µM,[1],-3%
same,inhibition at 10 µM,[2],8%
same,inhibition at 10 µM,[3],-1%
same,inhibition at 10 µM,[4],-5%
same,inhibition at 10 µM,[5],2%
same,inhibition at 10 µM,[6],0%
same,inhibition at 10 µM,[7],45%
same,inhibition at 10 µM,[8],-8%
same,inhibition at 10 µM,[9],-4%
same,inhibition at 10 µM,[10],27%
same,inhibition at 10 µM,[11],4%
same,GI50,[12],1890 nM
same,GI50,[13],1720 nM
same,GI50,[14],1670 nM
same,GI50,[15],2500 nM
same,GI50,[16],1860 nM
same,GI50,[17],1690 nM
same,GI50,[18],1780 nM
same,GI50,[19],1640 nM
same,GI50,[20],2510 nM
same,GI50,[21],9.98 µM
same,GI50,[22],2200 nM
same,GI50,[23],4.46 µM
same,GI50,[24],1770 nM
same,"phosphorylation of Akt (p-Akt, western blot)",[25],dose dependently inhibited the phosphorylation of Akt
same,lung tumor nodules,"[26]; B6C3F1 mice, B16F10 melanoma cells i.v., lungs at day 18",decreased the lung tumor nodules
same,oral bioavailability (in words),[26]; mice,orally bioavailable
